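Assay format: 96-well plates, 48-hour exposure. GI50 = concentration required for 50% inhibition of growth. TGI: concentration producing complete growth inhibition.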
Key:
Test in all cases: NCI tumour cell line growth inhibition, 48 h
[1] = system: 786-0 renal
[2] = system: A498 renal
[3] = system: A549 NSCLC
[4] = system: ACHN renal
[5] = system: BT-549 breast
[6] = system: CAKI-1 renal
[7] = system: COLO 205 colon
[8] = system: DU-145 prostate
[9] = system: EKVX NSCLC
[10] = system: HCC-2998 colon
[11] = system: HCT-116 colon
[12] = system: HCT-15 colon
[13] = system: HOP-62 NSCLC
[14] = system: HOP-92 NSCLC
[15] = system: HS 578T breast
[16] = system: HT29 colon
[17] = system: IGROV1 ovarian
[18] = system: K-562 leukemia
[19] = system: KM12 colon
[20] = system: LOX IMVI melanoma
[21] = system: M14 melanoma
[22] = system: MALME-3M melanoma
[23] = system: MCF7 breast
[24] = system: MDA-MB-231 breast
[25] = system: MDA-MB-435
[26] = system: MOLT-4 leukemia
[27] = system: NCI-H226 lung
[28] = system: NCI-H23 lung
[29] = system: NCI-H460 lung
[30] = system: NCI-H522 lung
[31] = system: NCI/ADR-RES ovarian
[32] = system: OVCAR-3 ovarian
[33] = system: OVCAR-5 ovarian
[34] = system: OVCAR-8 ovarian
[35] = system: RXF 393 renal
[36] = system: SF-268 CNS
[37] = system: SF-295 CNS
[38] = system: SF-539 CNS
[39] = system: SK-MEL-2 melanoma
[40] = system: SK-MEL-28 melanoma
[41] = system: SK-OV-3 ovarian
[42] = system: SN12C renal
[43] = system: SNB-19 CNS
[44] = system: SNB-75 CNS
[45] = system: SW-620 colon
[46] = system: T-47D breast
[47] = system: TK-10 renal
[48] = system: U251 CNS
[49] = system: UACC-257 melanoma
[50] = system: UACC-62 melanoma
[51] = system: UO-31 renal
[52] = system: CCRF-CEM leukemia
[53] = system: OVCAR-4 ovarian
[54] = system: PC-3 prostate
[55] = system: RPMI-8226 leukemia
[56] = system: SK-MEL-5 melanoma

For `CCOC(=O)C(Cc1c[nH]c2ccc([N+](=O)[O-])cc12)(NC(C)=O)C(=O)OCC`, the GI50 [1] was 143 µM, the TGI [1] was over 802 µM and the GI50 [2] was 8.18 µM. The TGI [2] was over 390 µM, the GI50 [3] was 67.3 µM and the TGI [3] was over 1000 µM. It also gave a GI50 [4] of 151 µM, a TGI [4] of over 1000 µM and a GI50 [5] of 44.5 µM. The TGI [5] was 426 µM, the GI50 [6] was 34.2 µM and the TGI [6] was over 1000 µM. It also gave a GI50 [7] of over 1000 µM, a TGI [7] of over 1000 µM and a GI50 [8] of over 714 µM. The TGI [8] was over 1000 µM, the GI50 [9] was over 1000 µM and the TGI [9] was over 1000 µM. For the same molecule, the GI50 [10] was over 1000 µM, the TGI [10] was over 1000 µM and the GI50 [11] was 139 µM. For the same molecule, the TGI [11] was over 1000 µM, the GI50 [12] was over 1000 µM and the TGI [12] was over 1000 µM. For the same molecule, the GI50 [13] was 304 µM, the TGI [13] was over 606 µM and the TGI [14] was over 423 µM. For the same molecule, the GI50 [15] was 80.8 µM, the TGI [15] was over 765 µM and the GI50 [16] was over 1000 µM. For the same molecule, the TGI [16] was over 1000 µM, the GI50 [17] was 68.7 µM and the TGI [17] was over 833 µM. The GI50 [18] was 47.7 µM, the TGI [18] was over 1000 µM and the GI50 [19] was over 1000 µM. For the same molecule, the TGI [19] was over 1000 µM, the GI50 [20] was over 419 µM and the TGI [20] was over 1000 µM. It also gave a GI50 [21] of over 1000 µM, a TGI [21] of over 1000 µM and a GI50 [22] of 114 µM. It also gave a TGI [22] of over 1000 µM, a GI50 [23] of 81 µM and a TGI [23] of over 1000 µM. The GI50 [24] was 140 µM, the TGI [24] was over 1000 µM and the GI50 [25] was over 1000 µM. It also gave a TGI [25] of over 1000 µM, a GI50 [26] of 35.2 µM and a TGI [26] of over 1000 µM. For the same molecule, the GI50 [27] was over 546 µM, the TGI [27] was over 1000 µM and the GI50 [28] was 85 µM. It also gave a TGI [28] of over 1000 µM, a GI50 [29] of over 306 µM and a TGI [29] of over 1000 µM. The GI50 [30] was 79.5 µM, the TGI [30] was 460 µM and the GI50 [31] was 53.6 µM. The TGI [31] was over 1000 µM, the GI50 [32] was 75.3 µM and the TGI [32] was over 1000 µM. It also gave a GI50 [33] of over 1000 µM, a TGI [33] of over 1000 µM and a GI50 [34] of 96.7 µM. The TGI [34] was over 870 µM, the GI50 [35] was 66.4 µM and the TGI [35] was 261 µM. It also gave a GI50 [36] of 188 µM, a TGI [36] of over 1000 µM and a GI50 [37] of 30.5 µM. For the same molecule, the TGI [37] was over 1000 µM, the GI50 [38] was 134 µM and the TGI [38] was over 473 µM. For the same molecule, the GI50 [39] was over 1000 µM, the TGI [39] was over 1000 µM and the GI50 [40] was 975 µM. It also gave a TGI [40] of over 1000 µM, a GI50 [41] of 184 µM and a TGI [41] of over 907 µM. The GI50 [42] was 502 µM, the TGI [42] was over 1000 µM and the GI50 [43] was 138 µM. The TGI [43] was 598 µM, the GI50 [44] was 59.2 µM and the TGI [44] was 215 µM. The GI50 [45] was over 1000 µM, the TGI [45] was over 1000 µM and the GI50 [46] was 50.1 µM. The TGI [46] was over 1000 µM, the GI50 [47] was 186 µM and the TGI [47] was over 1000 µM. The GI50 [48] was 134 µM, the TGI [48] was over 564 µM and the GI50 [49] was over 1000 µM. The TGI [49] was over 1000 µM, the GI50 [50] was 40.5 µM and the TGI [50] was over 1000 µM. The GI50 [51] was 80.3 µM and the TGI [51] was over 1000 µM.
In the case of `COc1ccccc1/C=C/C(=O)c1c(O)cc2occc2c1OC`, the GI50 [1] is reported as 35.3 µM, the TGI [1] is reported as 98.4 µM and the GI50 [2] is reported as 46 µM. The TGI [2] was over 100 µM, the GI50 [3] was over 100 µM and the TGI [3] was over 100 µM. For the same molecule, the GI50 [4] was 30 µM, the TGI [4] was over 100 µM and the GI50 [5] was 28.2 µM. For the same molecule, the TGI [5] was over 100 µM, the GI50 [6] was over 100 µM and the TGI [6] was over 100 µM. The GI50 [52] was 9.72 µM, the TGI [52] was over 100 µM and the GI50 [7] was over 100 µM. For the same molecule, the TGI [7] was over 100 µM, the GI50 [8] was 23.5 µM and the TGI [8] was over 100 µM. For the same molecule, the GI50 [9] was 37.1 µM, the TGI [9] was over 100 µM and the GI50 [10] was over 100 µM. It also gave a TGI [10] of over 100 µM, a GI50 [11] of 40.4 µM and a TGI [11] of over 100 µM. For the same molecule, the GI50 [12] was over 100 µM, the TGI [12] was over 100 µM and the GI50 [13] was 19.3 µM. The TGI [13] was 43.9 µM, the GI50 [14] was 2.98 µM and the TGI [14] was 26.6 µM. The GI50 [15] was 38.2 µM, the TGI [15] was over 100 µM and the GI50 [16] was over 100 µM. It also gave a TGI [16] of over 100 µM, a GI50 [17] of 26 µM and a TGI [17] of over 100 µM. It also gave a GI50 [19] of over 100 µM, a TGI [19] of over 100 µM and a GI50 [20] of 30.1 µM. For the same molecule, the TGI [20] was over 100 µM, the GI50 [21] was over 100 µM and the TGI [21] was over 100 µM. It also gave a GI50 [22] of 18.9 µM, a TGI [22] of 80.6 µM and a GI50 [23] of 9.56 µM. The TGI [23] was over 100 µM, the GI50 [24] was 33.1 µM and the TGI [24] was over 100 µM. It also gave a GI50 [25] of 5.96 µM, a TGI [25] of over 100 µM and a GI50 [27] of 25.1 µM. For the same molecule, the TGI [27] was over 100 µM, the GI50 [28] was 22.4 µM and the TGI [28] was over 100 µM. The GI50 [29] was over 100 µM, the TGI [29] was over 100 µM and the GI50 [30] was over 100 µM. For the same molecule, the TGI [30] was over 100 µM, the GI50 [31] was 29.6 µM and the TGI [31] was over 100 µM. The GI50 [32] was 47.4 µM, the TGI [32] was over 100 µM and the GI50 [53] was over 100 µM. For the same molecule, the TGI [53] was over 100 µM, the GI50 [33] was over 100 µM and the TGI [33] was over 100 µM. The GI50 [34] was 53.8 µM, the TGI [34] was over 100 µM and the GI50 [54] was over 100 µM. It also gave a TGI [54] of over 100 µM, a GI50 [55] of 23.5 µM and a TGI [55] of over 100 µM. The GI50 [35] was 14.9 µM, the TGI [35] was 42.6 µM and the GI50 [36] was 22.2 µM. It also gave a TGI [36] of over 100 µM, a GI50 [37] of 16.6 µM and a TGI [37] of 55.6 µM. The GI50 [38] was 24.3 µM, the TGI [38] was over 100 µM and the GI50 [39] was over 100 µM. The TGI [39] was over 100 µM, the GI50 [40] was over 100 µM and the TGI [40] was over 100 µM. It also gave a GI50 [56] of over 100 µM, a TGI [56] of over 100 µM and a GI50 [41] of 21.3 µM. It also gave a TGI [41] of 84.4 µM, a GI50 [42] of over 100 µM and a TGI [42] of over 100 µM. For the same molecule, the GI50 [43] was 30.8 µM, the TGI [43] was over 100 µM and the GI50 [44] was 7.49 µM. It also gave a TGI [44] of 26.3 µM, a GI50 [45] of over 100 µM and a TGI [45] of over 100 µM. It also gave a GI50 [46] of 55.9 µM, a TGI [46] of over 100 µM and a GI50 [47] of 21.9 µM. For the same molecule, the TGI [47] was 62.7 µM, the GI50 [48] was 18.9 µM and the TGI [48] was over 100 µM. The GI50 [49] was over 100 µM, the TGI [49] was over 100 µM and the GI50 [50] was 23.7 µM. For the same molecule, the TGI [50] was over 100 µM, the GI50 [51] was over 100 µM and the TGI [51] was over 100 µM.

— PubChem BioAssay (NCI)
